Laboratory results as given in patent US8952157B2, “Apoptosis-inducing agents for the treatment of cancer and immune and autoimmune diseases” (AbbVie Inc., priority 2008, dated 2015).

Each compound was assayed against GST-Bcl-2 (Homo sapiens (Human), UniProt P10415) (assay: Time Resolved-Fluorescence Resonance Energy Transfer (TR-FRET) Bcl-2 binding assay). Conditions: GST-Bcl-2 1 nM, F-Bak peptide probe 100 nM, Tb-anti-GST antibody 1 nM; Ki by Wang's equation.
Summary of the method: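 Competition TR-FRET: GST-Bcl-2 with fluorescent Bak peptide probe and Tb-anti-GST antibody, compounds serially diluted from 50 μM (2× start, 10% DMSO).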

Sequence of GST-Bcl-2 (P10415 whole entry): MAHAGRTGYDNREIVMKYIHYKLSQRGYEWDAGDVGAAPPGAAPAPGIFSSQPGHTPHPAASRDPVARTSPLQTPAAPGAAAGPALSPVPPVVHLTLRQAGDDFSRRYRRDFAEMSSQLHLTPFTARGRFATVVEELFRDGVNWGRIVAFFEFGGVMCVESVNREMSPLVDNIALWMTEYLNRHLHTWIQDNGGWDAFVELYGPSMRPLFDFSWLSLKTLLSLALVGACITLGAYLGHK

Compared with `CC1(C)CCC(CN2CCN(c3ccc(C(=O)NS(=O)(=O)c4ccc(NCC5CCOCC5)c([N+](=O)[O-])c4)c(Oc4cncc(N)c4)c3)CC2)=C(c2ccc(Cl)cc2)C1` [Example 279, 2-[(5-aminopyridin-3-yl)oxy]-4-(4-{[2-(4-chlorophenyl)-4,4-dimethylcyclohex-1-en-1-yl]methyl}piperazin-1-yl)-N-({3-nitro-4-[(tetrahydro-2H-pyran-4-ylmethyl)amino]phenyl}sulfonyl)benzamide], `CC1(C)CCC(CN2CCN(c3ccc(C(=O)NS(=O)(=O)c4ccc(NCC5CCOCC5)c([N+](=O)[O-])c4)c(Oc4cc5cc[nH]c5cc4F)c3)CC2)=C(c2ccc(Cl)cc2)C1` [Example 238, 4-(4-{[2-(4-chlorophenyl)-4,4-dimethylcyclohex-1-en-1-yl]methyl}piperazin-1-yl)-2-[(6-fluoro-1H-indol-5-yl)oxy]-N-({3-nitro-4-[(tetrahydro-2H-pyran-4-ylmethyl)amino]phenyl}sulfonyl)benzamide] is 14-fold lower in Ki: 1.7 nM for the first, 0.124 nM for the second. The second binds more tightly here.

First: CN1CCC(Nc2ccc(S(=O)(=O)NC(=O)c3ccc(N4CCN(CC5=C(c6ccc(Cl)cc6)CC(C)(C)CC5)CC4)cc3Oc3c(F)cccc3Cl)cc2[N+](=O)[O-])CC1 [Example 151, 2-(2-chloro-6-fluorophenoxy)-4-(4-{[2-(4-chlorophenyl)-4,4-dimethylcyclohex-1-en-1-yl]methyl}piperazin-1-yl)-N-({4-[(1-methylpiperidin-4-yl)amino]-3-nitrophenyl}sulfonyl)benzamide]
Second: CN1CCC(Nc2ccc(S(=O)(=O)NC(=O)c3ccc(N4CCN(CC5=C(c6ccc(Cl)cc6)CC(C)(C)CC5)CC4)cc3Oc3cccc(-c4ccc[nH]4)c3)cc2[N+](=O)[O-])CC1 [Example 197, 4-(4-{[2-(4-chlorophenyl)-4,4-dimethylcyclohex-1-en-1-yl]methyl}piperazin-1-yl)-N-({4-[(1-methylpiperidin-4-yl)amino]-3-nitrophenyl}sulfonyl)-2-[3-(1H-pyrrol-2-yl)phenoxy]benzamide]
The Ki of the first is 32-fold higher: 6.94 nM for the first, 0.22 nM for the second.

Going from `CC1(C)CCC(CN2CCN(c3ccc(C(=O)NS(=O)(=O)c4ccc(NCCCN5CCOCC5)c([N+](=O)[O-])c4)c(Oc4ccc(N)c(Cl)c4)c3)CC2)=C(c2ccc(Cl)cc2)C1` [Example 52, 2-(4-amino-3-chlorophenoxy)-4-(4-((2-(4-chlorophenyl)-4,4-dimethylcyclohex-1-en-1-yl)methyl)piperazin-1-yl)-N-((4-((3-morpholin-4-ylpropyl)amino)-3-nitrophenyl)sulfonyl)benzamide] to `CN(C)CCCNc1ccc(S(=O)(=O)NC(=O)c2ccc(N3CCN(CC4=C(c5ccc(Cl)cc5)CC(C)(C)CC4)CC3)cc2Oc2cccc(F)c2)cc1[N+](=O)[O-]` [Example 138, 4-(4-{[2-(4-chlorophenyl)-4,4-dimethylcyclohex-1-en-1-yl]methyl}piperazin-1-yl)-N-[(4-{[3-(dimethylamino)propyl]amino}-3-nitrophenyl)sulfonyl]-2-(3-fluorophenoxy)benzamide], the Ki falls from 0.072 nM to 0.016 nM (4.5-fold). The second binds more tightly here.

`CN1CCN(Nc2ccc(S(=O)(=O)NC(=O)c3ccc(N4CCN(CC5=C(c6ccc(Cl)cc6)CC(C)(C)CC5)CC4)cc3Oc3ccc(O)cc3Cl)cc2[N+](=O)[O-])CC1` [Example 208, 2-(2-chloro-4-hydroxyphenoxy)-4-(4-{[2-(4-chlorophenyl)-4,4-dimethylcyclohex-1-en-1-yl]methyl}piperazin-1-yl)-N-({4-[(4-methylpiperazin-1-yl)amino]-3-nitrophenyl}sulfonyl)benzamide] and `CN1CCC(Nc2ccc(S(=O)(=O)NC(=O)c3ccc(N4CCN(CC5=C(c6ccc(Cl)cc6)CC(C)(C)CC5)CC4)cc3Oc3ccccc3C(=O)N(C)C)cc2[N+](=O)[O-])CC1` [Example 214, 2-(5-(4-((2-(4-chlorophenyl)-4,4-dimethylcyclohex-1-enyl)methyl)piperazin-1-yl)-2-(4-(1-methylpiperidin-4-ylamino)-3-nitrophenylsulfonylcarbamoyl)phenoxy)-N,N-dimethylbenzamide] are within 1.5-fold of each other in Ki: 0.261 nM for the first, 0.221 nM for the second.

Going from `Nc1cccc(Oc2cc(N3CCN(Cc4ccccc4-c4ccc(Cl)cc4)CC3)ccc2C(=O)NS(=O)(=O)c2ccc(NCC3CCOCC3)c([N+](=O)[O-])c2)c1` [Example 19, 2-(3-aminophenoxy)-4-(4-((4′-chloro-1,1′-biphenyl-2-yl)methyl)piperazin-1-yl)-N-((3-nitro-4-((tetrahydro-2H-pyran-4-ylmethyl)amino)phenyl)sulfonyl)benzamide] to `CN(C)CCCc1c[nH]c2ccc(Oc3cc(N4CCN(Cc5ccccc5-c5ccc(Cl)cc5)CC4)ccc3C(=O)NS(=O)(=O)c3ccc(NCC4CCOCC4)c([N+](=O)[O-])c3)cc12` [Example 106, 4-(4-((4′-chloro-1,1′-biphenyl-2-yl)methyl)piperazin-1-yl)-2-((3-(3-(dimethylamino)propyl)-1H-indol-5-yl)oxy)-N-((3-nitro-4-((tetrahydro-2H-pyran-4-ylmethyl)amino)phenyl)sulfonyl)benzamide], the Ki rises from 1.68 nM to 215 nM (130-fold).

Going from `CN(C)CCCNc1ccc(S(=O)(=O)NC(=O)c2ccc(N3CCN(CC4=C(c5ccc(Cl)cc5)CC(C)(C)CC4)CC3)cc2Oc2ccc3c(ccn3C(=O)OC(C)(C)C)c2)cc1[N+](=O)[O-]` [Example 231, tert-butyl 5-[5-(4-{[2-(4-chlorophenyl)-4,4-dimethylcyclohex-1-en-1-yl]methyl}piperazin-1-yl)-2-({[(4-{[3-(dimethylamino)propyl]amino}-3-nitrophenyl)sulfonyl]amino}carbonyl)phenoxy]-1H-indole-1-carboxylate] to `CC(C)(C)OC(=O)N1CCN(c2ccc(Oc3cc(N4CCN(Cc5ccccc5-c5ccc(Cl)cc5)CC4)ccc3C(=O)NS(=O)(=O)c3ccc(NCCCN4CCOCC4)c([N+](=O)[O-])c3)cc2)CC1` [Example 97, tert-butyl 4-(4-(5-(4-((4′-chloro-1,1′-biphenyl-2-yl)methyl)piperazin-1-yl)-2-((((4-((3-morpholin-4-ylpropyl)amino)-3-nitrophenyl)sulfonyl)amino)carbonyl)phenoxy)phenyl)piperazine-1-carboxylate], the Ki rises from 36.9 nM to 147 nM (4-fold).

Going from `CC1(C)CCC(CN2CCN(c3ccc(C(=O)NS(=O)(=O)c4ccc(N[C@@H]5CCN(C(CF)CF)C5)c([N+](=O)[O-])c4)c(Oc4cnc(N)c(Cl)c4)c3)CC2)=C(c2ccc(Cl)cc2)C1` [Example 394, 2-[(6-amino-5-chloropyridin-3-yl)oxy]-4-(4-{[2-(4-chlorophenyl)-4,4-dimethylcyclohex-1-en-1-yl]methyl}piperazin-1-yl)-N-{[4-({(3R)-1-[2-fluoro-1-(fluoromethyl)ethyl]pyrrolidin-3-yl}amino)-3-nitrophenyl]sulfonyl}benzamide] to `CN1CCC(Nc2ccc(S(=O)(=O)NC(=O)c3ccc(N4CCN(Cc5cc6c(cc5-c5ccc(Cl)cc5)OCO6)CC4)cc3Oc3ccccc3Cl)cc2[N+](=O)[O-])CC1` [Example 183, 2-(2-chlorophenoxy)-4-(4-{[6-(4-chlorophenyl)-1,3-benzodioxol-5-yl]methyl}piperazin-1-yl)-N-({4-[(1-methylpiperidin-4-yl)amino]-3-nitrophenyl}sulfonyl)benzamide], the Ki rises from 0.018 nM to 2.53 nM (140-fold). The first binds more tightly here.
